In article PMC4061029, “A Stable and Reproducible Human Blood-Brain Barrier Model Derived from Hematopoietic Stem Cells” (PLoS ONE, 2014):

What was measured:
[1] = system: iPSC-derived ECs with astrocytes; set-up: method as in PMID 24561821; conditions: cited from earlier work
[2] = system: CD34+-derived ECs co-cultured with pericytes; assay: Abrogation of Wnt signaling: paracellular permeability of ECs co-cultured with pericytes; format: cell-based, human; conditions: co-culture with pericytes, 4 days, 0.1 or 1 µM, luminal side
Method: Prior to the experiments, HEPES-buffered Ringer’s solution (in some cases EBM-2 medium) was added to empty wells of a 12-well plate (Costar). Filter inserts, containing confluent monolayers of CD34^+-ECs, were subsequently placed in the 12-well plate, filled with compound solution containing the fluorescent integrity marker Lucifer Yellow (20 µM; Life Technologies), and then placed on an orbital shaker. After 1 h, filter inserts were withdrawn from the receiver compartment. Aliquots from the donor solution were taken at the beginning and at the end of the experiments and the fluorescence was quantified. At least three inserts with cells and three without cells were tested in each permeability measurement. Fluorescence detection was carried out on a Synergy H1 multiplates reader (Biotek) using the following excitation/emission wavelength (nm) settings: 432/538; 490/516; 542/570 for Lucifer yellow, Fluorescein Na and Cy3-Human Serum Albumin and Human IgG respectively.
For Wnt signaling experiments, mono- and co-culture systems were used. […]
Figure 6 Evaluation of Wnt signaling in the induction of BBB properties in ECs. […] After 4 days of coculture, the paracellular permeability and cell organization were evaluated. (D) Fluorescence microscopy images showing the expression of ZO-1 in untreated ECs or ECs treated with XAV 939 (1 µM) for 4 days. […]

[3] = system: CD34+-derived ECs co-cultured with pericytes; assay: Cell viability of ECs under Wnt antagonist; format: cell-based, human; conditions: co-culture with pericytes, 4 days

Compound: CC1=C(/C=C/C(C)=C/C=C/C(C)=C/C(=O)O)C(C)(C)CCC1 [retinoic acid]
- TEER of the BBB model [1]: up to 5000 Ω×cm^2

Compound: Oc1nc(-c2ccc(C(F)(F)F)cc2)nc2c1CSCC2 [XAV-939]
- paracellular permeability of the EC monolayer to lucifer yellow [2]: increased
- cell viability [3]: did not affect
